Assay results as given in ChEMBL document CHEMBL5223088, “EP2 Antagonists (2011-2021): A Decade's Journey from Discovery to Therapeutics” (J Med Chem, 2021).
Values after ≈ are worked out from the molar mass of the structure shown. Each block holds one molecule with its values, some of them ahead of it.

Assays:
[1] = target: T1, Prostaglandin D2 receptor (Homo sapiens, UniProt Q13258); experiment: Binding affinity to human DP1 receptor expressed in CHO cells assessed as inhibition constant; type: cell-based
T1 sequence (Q13258 whole entry): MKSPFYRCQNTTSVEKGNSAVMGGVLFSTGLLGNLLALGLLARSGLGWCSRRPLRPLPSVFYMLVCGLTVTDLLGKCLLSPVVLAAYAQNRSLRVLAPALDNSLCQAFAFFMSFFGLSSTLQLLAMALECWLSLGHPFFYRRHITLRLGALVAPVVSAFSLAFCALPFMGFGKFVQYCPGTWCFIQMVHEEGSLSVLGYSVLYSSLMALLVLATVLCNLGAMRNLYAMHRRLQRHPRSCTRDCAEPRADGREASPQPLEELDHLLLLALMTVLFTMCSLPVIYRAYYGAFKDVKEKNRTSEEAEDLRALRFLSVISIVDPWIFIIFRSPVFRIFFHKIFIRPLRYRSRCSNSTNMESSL

[2] = target: T2, Prostaglandin E2 receptor EP1 subtype (Homo sapiens, UniProt P34995); experiment: Binding affinity to EP1 receptor (unknown origin) assessed as inhibition constant
T2 sequence (P34995 whole entry): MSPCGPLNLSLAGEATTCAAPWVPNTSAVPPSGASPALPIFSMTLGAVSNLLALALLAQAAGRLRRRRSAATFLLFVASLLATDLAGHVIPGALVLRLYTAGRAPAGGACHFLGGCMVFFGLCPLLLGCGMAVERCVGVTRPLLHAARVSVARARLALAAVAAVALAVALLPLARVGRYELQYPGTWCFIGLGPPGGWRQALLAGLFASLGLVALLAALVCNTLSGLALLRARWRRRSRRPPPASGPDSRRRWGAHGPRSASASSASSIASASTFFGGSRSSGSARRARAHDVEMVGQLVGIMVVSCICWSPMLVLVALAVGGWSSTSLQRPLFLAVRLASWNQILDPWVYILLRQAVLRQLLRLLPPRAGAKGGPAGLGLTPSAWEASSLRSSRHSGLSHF

[3] = target: T3, Prostaglandin E2 receptor EP3 subtype (Homo sapiens, UniProt P43115); experiment: Binding affinity to EP3 receptor (unknown origin) assessed as inhibition constant
T3 sequence (P43115 whole entry): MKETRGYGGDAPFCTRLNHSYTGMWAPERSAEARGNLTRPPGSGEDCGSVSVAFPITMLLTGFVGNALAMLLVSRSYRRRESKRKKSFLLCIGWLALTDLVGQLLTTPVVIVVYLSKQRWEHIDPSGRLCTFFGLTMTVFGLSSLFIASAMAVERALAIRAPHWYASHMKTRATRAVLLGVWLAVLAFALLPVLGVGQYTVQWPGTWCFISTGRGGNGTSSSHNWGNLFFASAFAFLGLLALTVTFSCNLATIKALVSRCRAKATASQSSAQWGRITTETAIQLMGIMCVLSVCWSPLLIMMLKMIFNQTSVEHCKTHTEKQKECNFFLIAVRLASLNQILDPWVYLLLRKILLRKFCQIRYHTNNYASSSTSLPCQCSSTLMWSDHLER

[4] = target: T4, Prostaglandin E2 receptor EP4 subtype (Homo sapiens, UniProt P35408); experiment: Binding affinity to human EP4 receptor expressed in CHO cells assessed as inhibition constant; type: cell-based
[5] = target: T5, Prostaglandin E2 receptor EP2 subtype (Homo sapiens, UniProt P43116); experiment: Binding affinity to human EP2 receptor expressed in C6 cells assessed as binding constant at 10 mins by TR-FRET cAMP functional assay; type: cell-based; conditions: filed as antagonist
[6] = Half life in mouse C57BL/6 plasma at 20 mg/kg,ip by LC-MS/MS analysis; type: ADME, organism-based; conditions: C57BL/6, mouse
[7] = Ratio of drug level in brain to plasma in C57BL/6 mouse at 20 mg/kg, ip by LC-MS/MS analysis; type: ADME, organism-based; conditions: read-out: BPR
[8] = Ratio of drug level in brain to plasma in pilocarpine-induced Sprague-Dawley rat at 25 mg/kg, ip after 6 hrs by LC-MS/MS analysis
[9] = Ratio of drug level in brain to plasma in C57BL/6 mouse at 3 mg/kg, ip by LC-MS/MS analysis; type: ADME, organism-based; conditions: read-out: BPR
[10] = Solubility of the compound; type: ADME
[11] = target: T5, Prostaglandin E2 receptor EP2 subtype; experiment: Binding affinity to human EP2 receptor expressed in rat C6 cells assessed as binding constant; type: cell-based; conditions: filed as antagonist
[12] = target: T6, Prostaglandin D2 receptor (Homo sapiens) (UniProt Q13258); experiment: Binding affinity to human DP1 receptor expressed in rat C6 cells assessed as binding constant; type: cell-based; conditions: filed as antagonist
T6 sequence (whole entry): T1 sequence (Q13258 whole entry)

[13] = target: T4, Prostaglandin E2 receptor EP4 subtype; experiment: Binding affinity to EP4 receptor (unknown origin) assessed as binding constant; conditions: filed as antagonist
[14] = Half life in C57BL/6 mouse at 10 mg/kg, po by LC-MS/MS analysis; type: ADME, organism-based; conditions: in vivo
[15] = Ratio of drug level in brain to plasma in C57BL/6 mouse at 10 mg/kg, po by LC-MS/MS analysis; type: ADME, organism-based; conditions: read-out: BPR
[16] = Aqueous solubility of compound in PBS buffer at pH 7.4 by nephelometric analysis; type: ADME
[17] = target: T5, Prostaglandin E2 receptor EP2 subtype; experiment: Binding affinity to EP2 receptor in human mast cell assessed as inhibition constant; type: cell-based
[18] = target: T1, Prostaglandin D2 receptor; experiment: Binding affinity to DP1 receptor in human mast cell assessed as inhibition constant; type: cell-based
[19] = target: T4, Prostaglandin E2 receptor EP4 subtype; experiment: Binding affinity to EP4 receptor in human mast cell assessed as inhibition constant; type: cell-based
[20] = target: T5, Prostaglandin E2 receptor EP2 subtype; experiment: Potency index, ratio of PF-0418948 Ki to test compound Ki for binding affinity to human EP2

T4 sequence (P35408 whole entry): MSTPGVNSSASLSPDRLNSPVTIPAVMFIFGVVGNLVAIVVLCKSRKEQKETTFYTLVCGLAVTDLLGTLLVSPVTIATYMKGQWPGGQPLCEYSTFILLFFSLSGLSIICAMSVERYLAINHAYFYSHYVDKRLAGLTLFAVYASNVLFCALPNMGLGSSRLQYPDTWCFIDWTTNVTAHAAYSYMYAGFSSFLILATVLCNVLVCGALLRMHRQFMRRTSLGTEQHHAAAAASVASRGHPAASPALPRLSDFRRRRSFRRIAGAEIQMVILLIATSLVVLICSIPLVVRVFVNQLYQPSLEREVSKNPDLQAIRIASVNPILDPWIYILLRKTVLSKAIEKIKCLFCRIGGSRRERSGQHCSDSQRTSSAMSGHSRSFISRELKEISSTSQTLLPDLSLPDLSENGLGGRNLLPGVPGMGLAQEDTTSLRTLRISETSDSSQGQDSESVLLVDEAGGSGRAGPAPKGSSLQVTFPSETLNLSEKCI
T5 sequence (P43116 whole entry): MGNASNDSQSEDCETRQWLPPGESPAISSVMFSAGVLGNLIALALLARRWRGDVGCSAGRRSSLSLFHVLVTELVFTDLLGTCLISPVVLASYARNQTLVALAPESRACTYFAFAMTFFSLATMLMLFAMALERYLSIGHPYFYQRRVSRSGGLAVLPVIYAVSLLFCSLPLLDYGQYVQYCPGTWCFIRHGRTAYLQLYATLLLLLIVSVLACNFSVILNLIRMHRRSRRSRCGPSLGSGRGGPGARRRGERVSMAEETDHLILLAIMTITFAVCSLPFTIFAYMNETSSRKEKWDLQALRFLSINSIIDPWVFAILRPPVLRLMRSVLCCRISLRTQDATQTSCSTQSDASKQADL

Ki [1]: > 10 µM | Ki [2]: > 10 µM | Ki [3]: > 10 µM | Ki [4]: > 10 µM
Compound: COc1ccc2cc(OCC3(C(=O)O)CN(C(=O)c4ccc(F)cc4)C3)ccc2c1 [PF-04418948]

Kb [5]: 0.0132 µM | half-life [6]: 2.8 h | Kp [7]: 0.02 | Kp at 6 h [8]: 0.03
Compound: Cc1[nH]c2ccccc2c1CCNC(=O)c1ccc(-c2c[nH]cn2)cc1

Kp [9]: 0.3 | solubility [10]: 45 µM (≈ 17.8 µg/mL)
Compound: COc1cc(/C=C/C(=O)NCCn2c(C)cc3ccccc32)cc(OC)c1OC

Kb [11]: 0.0485 µM | Kb [12]: 18 µM | Kb [13]: 15 µM | half-life [14]: 10.5 h | Kp [15]: 0.02 | solubility kinetic [16]: 500 µM (≈ 173 µg/mL)
Compound: Cc1cc2ccccc2n1CCNC(=O)c1ccc(-c2nnn[nH]2)cc1

Ki [17]: 0.00063 µM | Ki [18]: 1.2 µM | Ki [19]: 16.3 µM | Ratio Ki [20]: 10
Compound: COc1ccc(C(=O)N2CCC(COc3ccc(-c4ccc(C#N)cc4)cc3)(C(=O)O)C2)cc1 (stereo not given)
